Measurements: patent US8962608B2, “Cycloalkylnitrile pyrazole carboxamides as janus kinase inhibitors” (Merck Sharp & Dohme Corp., priority 2011, dated 2015)

Each compound was assayed against JAK1 (recombinant purified GST-tagged catalytic domain) (Homo sapiens (Human), UniProt P23458) (assay: biochemical).
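Further: biochemical assay with HTRF read-out.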

Chain of JAK1 (recombinant purified GST-tagged catalytic domain) (P23458 875-1153): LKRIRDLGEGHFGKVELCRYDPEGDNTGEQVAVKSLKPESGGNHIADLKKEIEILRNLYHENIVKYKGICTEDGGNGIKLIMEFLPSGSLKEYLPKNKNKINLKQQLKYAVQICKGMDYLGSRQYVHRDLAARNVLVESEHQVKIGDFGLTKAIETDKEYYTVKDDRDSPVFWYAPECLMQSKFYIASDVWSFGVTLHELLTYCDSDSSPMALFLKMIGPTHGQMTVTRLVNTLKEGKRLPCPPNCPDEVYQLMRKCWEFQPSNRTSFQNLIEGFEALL

Row | Compound | IC50 [nM]
1 | CC(C)(C)OC(=O)[C@H]1CCC(n2cc(C(N)=O)c(Nc3ccc(F)cc3)n2)[C@@H](C#N)C1 (mixture of isomers) [Example 7-1, tert-Butyl (1S,3S,4S and 1R,3R,4R)-4-{4-carbamoyl-3-[(4-fluorophenyl)amino]-1H-pyrazol-1-yl}-3-cyanocyclohexanecarboxylate] | 17
2 | N#C[C@@H]1CC2(CCC1n1cc(C(N)=O)c(Nc3ccnc(F)c3)n1)CC2 (mixture of isomers) [Example 11-7, 1-((5R,6R and 5S,6S)-5-cyanospiro[2.5]octan-6-yl)-3-((2-fluoropyridin-4-yl)amino)-1H-pyrazole-4-carboxamide] | 5
3 | N#C[C@H]1C[C@H](O)CCC1n1cc(C(N)=O)c(Nc2ccnc(F)c2)n1 (mixture of isomers) [Example 15, 1-[(1S,2S,4R and 1R,2R,4S)-2-Cyano-4-hydroxycyclohexyl]-3-[(2-fluoropyridin-4-yl)amino]-1H-pyrazole-4-carboxamide] | 3
4 | N#C[C@H]1CCCC[C@@H]1n1cc(C(N)=O)c(Nc2ccnc(Cl)c2)n1 (racemic) [Example 17-7, 3-[(2-chloropyridin-4-yl)amino]-1-[(1S,2S and 1R,2R)-2-cyanocyclohexyl]-1H-pyrazole-4-carboxamide] | 4
5 | N#C[C@H]1CCCCC1n1cc(C(N)=O)c(Nc2ccc(S(=O)(=O)CC(F)(F)F)cc2)n1 (mixture of isomers) [Example 17-12, 1-[(1S,2S and 1R,2R)-2-cyanocyclohexyl]-3-({4-[(2,2,2-trifluoroethyl)sulfonyl]phenyl}amino)-1H-pyrazole-4-carboxamide] | 0.49
6 | N#C[C@@H]1CCCC[C@@H]1n1cc(C(N)=O)c(Nc2ccc(F)nc2)n1 (racemic) [Example 17-24, 1-[(1S,2R and 1R,2S)-2-cyanocyclohexyl]-3-[(6-fluoropyridin-3-yl)amino]-1H-pyrazole-4-carboxamide] | 33
7 | N#C[C@H]1CCCCC1n1cc(C(N)=O)c(Nc2ccc3c(c2)C=CS3(=O)=O)n1 (mixture of isomers) [Example 17-63, 1-[(1S,2S and 1R,2R)-2-cyanocyclohexyl]-3-[(1,1-dioxido-1-benzothiophen-5-yl)amino]-1H-pyrazole-4-carboxamide] | 0.45
8 | N#C[C@H]1CCCCC1n1cc(C(N)=O)c(Nc2ccc3c(c2)CCS3(=O)=O)n1 (mixture of isomers) [Example 20, 1-[(1S,2S and 1R,2R)-2-Cyanocyclohexyl]-3-[(1,1-dioxido-2,3-dihydro-1-benzothiophen-5-yl)amino]-1H-pyrazole-4-carboxamide] | 0.4

Now from value to compound:

Row | IC50 [nM] | Compound
9 | 0.08 | CNC1CCC(n2cc(C(N)=O)c(Nc3ccc(S(=O)(=O)C(F)(F)F)cc3)n2)[C@@H](C#N)C1 (mixture of isomers) [Example 27-6, 1-[(1S,2S and 1R,2R)-2-cyano-4-(methylamino)cyclohexyl]-3-({4-[(trifluoromethyl)sulfonyl]phenyl}amino)-1H-pyrazole-4-carboxamide]
10 | 0.4 | CN(C)[C@@H]1CCC(n2cc(C(N)=O)c(Nc3ccc(S(=O)(=O)C(F)(F)F)cc3)n2)[C@@H](C#N)C1 (mixture of isomers) [Example 27-7, 1-[(1S,2S,4R and 1R,2R,4S)-2-cyano-4-(dimethylamino)cyclohexyl]-3-({4-[(trifluoromethyl)sulfonyl]phenyl}amino)-1H-pyrazole-4-carboxamide]
11 | 0.3 | CN(C)[C@H]1CCC(n2cc(C(N)=O)c(Nc3ccc(S(=O)(=O)C(F)(F)F)cc3)n2)[C@@H](C#N)C1 (mixture of isomers) [Example 27-8, 1-[(1S,2S,4S and 1R,2R,4R)-2-cyano-4-(dimethylamino)cyclohexyl]-3-({4-[(trifluoromethyl)sulfonyl]phenyl}amino)-1H-pyrazole-4-carboxamide]
12 | 3 | CN[C@H]1CCC(n2cc(C(N)=O)c(Nc3ccc(S(=O)(=O)C(F)(F)F)cc3)n2)[C@@H](C#N)C1 (mixture of isomers) [Example 27-9, 1-[(1S,2S,4S and 1R,2R,4R)-2-cyano-4-(methylamino)cyclohexyl]-3-({4-[(trifluoromethyl)sulfonyl]phenyl}amino)-1H-pyrazole-4-carboxamide]
